Reference: publication doi:10.1101/2025.07.06.663376v1, “Fubylation as a Druggable Ubiquitin-Like Conjugation System Controlling Hippo Pathway Activity” (biorxiv, 2025)

Assays:
Type in all cases: binding
FUBI [1] = target: T1, FUBI (Homo sapiens, UniProt P62861); assay: photo-crosslinking, rhodamine-azide click, in-gel fluorescence
T1 construct: gene FAU; mature FUBI (74 residues, ends VAGRMLGG) cut from the FAU precursor (FUBI-eS30 fusion); E. coli BL21; GST-FUBI (pGEX-6P-1) for photolabelling; untagged FUBI (6-HIS-SUMO removed by ULP1) for HDX-MS; printed peptides 32-42 EGIAPEDQVVL and 67-74 VAGRMLGG
Description: photo-crosslinking, rhodamine-azide click, in-gel fluorescence on FUBI | recombinant preparations of FUBI, but not S30, were dose-dependently labeled by mCMN927

FAU = target: T2, FAU (Homo sapiens, UniProt P62861); assay: as above
T2 construct: uncleaved FAU precursor (FUBI fused to ribosomal protein S30); GST-tagged (pGEX-6P-1), E. coli BL21, glutathione agarose

FUBI [2] = target: T1, FUBI; assay: HDX-MS (also competition of probe labelling); conditions: untagged FUBI 5 µM, 600 µM compound, 20 mM Tris-HCl, 100 mM NaCl, pH 8.0, 25 °C; non-covalent; residues 32-42 and 67-74

| EC50 (FUBI [1]) [µM] | EC50 (FAU) [µM] | SMILES | HDX-MS (also competition of probe labelling) (FUBI [2]) |
| --- | --- | --- | --- |
| 3.5 | 4.3 | C#CCCC1(CCN(C)CC2CCN(c3nc(-c4ccncc4)nc4ccccc34)CC2)N=N1 [mCMN927, {2-[3-(but-3-yn-1-yl)diazirin-3-yl]ethyl}(methyl)({1-[2-(pyridin-4-yl)quinazolin-4-yl]piperidin-4-yl}methyl)amine] | – |
| – | – | CN(C)CC1CCN(c2nc(-c3ccncc3)nc3ccccc23)CC1 [sCMF231] | sCMF231 treatment reduced deuterium exchange within two key regions |
